# Laboratory results taken from patent publication US20220251085A1, “CYSTEINE BINDING COMPOSITIONS AND METHODS OF USE THEREOF” (University of Virginia Patent Foundation, priority 2019, published 2022).
# Key:
# [1] = system: DM93 cells; assay: Live cell activity of purine probes, gel-based (CuAAC rhodamine-azide, in-gel fluorescence); conditions: for labeling profile in live cells: DM93 cells, 25 μM, 4 hours
# Description: Live Cell Activity Method: DM93 cells were grown at 37° C. in 5% CO2 until 90% confluent. Once confluent cells were washed with serum free media and treated with halogenated purine probes at a final concentration of 25 μM (unless stated) for 4 hours (unless stated). Cells were then scraped and washed 3× with cold PBS and lysed in PBS+protease inhibitor. Lysates were spun at 100,000×g for 45 minutes. Halogen probe-modified proteins in soluble fractions were visualized by conjugating rhodamine-azide using copper-catalyzed azide-alkyne cycloaddition (CuAAC; 1 hour, room temperature), subjected to SDS-PAGE, and detected by in-gel fluorescence scanning. SDS-PAGE gels were also stained with Coomassie brilliant blue to determine protein load. All samples were loaded with equivalent amounts of protein. Thus, changes in purine probe labeling is not due to loading of different proteome amounts.
# [2] = system: DM93 cells lysates (soluble fractions); assay: Lysate activity of purine probes, gel-based (in-gel fluorescence); type: biochemical; conditions: for protein labeling activity in lysates: DM93 soluble fractions, 25 μM, 2 hrs, 37° C.
# Description: Lysate Activity Method: DM93 cells were grown at 37° C. in 5% CO2 until 90% confluent. Once confluent, cells were scraped and washed 3× times with cold PBS and lysed in PBS+protease inhibitor. Lysates were spun at 100,000×g for 45 minutes. Soluble fractions were treated with 25 μM of halogenated purine probes (unless stated) for 2 hrs (unless stated) at 37° C. Purine probe modified proteins were conjugated to rhodamine-azide by CuAAC, subjected to SDS-PAGE analysis, and detected by in-gel fluorescence scanning. SDS-PAGE gels were stained with Coomassie brilliant blue to determine protein load.
# [3] = system: proteomes of DM93, Hela, A549, HEK293T, and Jurkat cells; assay: Quantitative chemical proteomics (LC-MS) of Pu-1 and Pu-2 modified proteins; type: cell-based, HUMAN
# Description: Cells were grown at 37° C. in 5% CO2 until 90% confluent. Once confluent cells were washed with serum free media and treated with purine probes (Pu-1, Pu-2) at a final concentration of 25 μM for 4 hours. Cells were then scraped and washed 3× with cold PBS and lysed in PBS+protease inhibitor. Lysates were spun at 100,000×g for 45 minutes. Purine probe-modified proteins in soluble fractions were coupled to desthiobiotin-azide using copper-catalyzed azide-alkyne cycloaddition (CuAAC; 1 hour, room temperature), probe-modified proteins digested into peptides using trypsin protease, probe-modified peptides enriched by avidin affinity chromatography, and subjected to LC-MS quantitative chemical proteomics as previously described.^15 The following cell lines were used for analysis: DM93, Hela, A549, HEK293T, and Jurkat. […]
# Chemical proteomics performed as described in Example 9 determined several protein modification sites targeted by Pu-1 and/or Pu-2. […]
Compound,labeling profile in live cells [1],time dependence of labeling ([1]; live cells),protein labeling activity in lysates [2],time dependence of labeling ([2]; proteomes),Number of Unique Modified Residues ([3]; Arginine (R)),Percentage of Modified Residues ([3]; Arginine (R)),Number of Unique Modified Residues ([3]; Asparagine (N)),Percentage of Modified Residues ([3]; Asparagine (N)),Number of Unique Modified Residues ([3]; Aspartic Acid (D)),Percentage of Modified Residues ([3]; Aspartic Acid (D)),"Number of Unique Modified Residues ([3]; Cysteine (C), Byonic score>300)","Percentage of Modified Residues ([3]; Cysteine (C), Byonic score>300)",Number of Unique Modified Residues ([3]; Glutamic Acid (E)),Percentage of Modified Residues ([3]; Glutamic Acid (E)),Number of Unique Modified Residues ([3]; Glutamine (Q)),Percentage of Modified Residues ([3]; Glutamine (Q)),Number of Unique Modified Residues ([3]; Histidine (H)),Percentage of Modified Residues ([3]; Histidine (H)),Number of Unique Modified Residues ([3]; Lysine (K)),Percentage of Modified Residues ([3]; Lysine (K)),further results
"C#CCn1cnc2c(Cl)nc(Cl)nc21 [Pu-2, 2,6-Dichloro-9-(prop-2-yn-1-yl)-9H-purine]",robust labeling profiles,react in a time dependent manner,highest protein labeling activity,time dependence in protein labeling,19,1.6%,0,0%,44,3.7%,952,80%,68,5.7%,39,3.3%,12,1.0%,24,2.0%,Number of Unique Modified Residues ([3]; Methionine (M)): 7; Percentage of Modified Residues ([3]; Methionine (M)): 0.59%; Number of Unique Modified Residues ([3]; Serine (S)): 5; Percentage of Modified Residues ([3]; Serine (S)): 0.42%; Number of Unique Modified Residues ([3]; Threonine (T)): 6; Percentage of Modified Residues ([3]; Threonine (T)): 0.50%; Number of Unique Modified Residues ([3]; Tryptophan (W)): 3; Percentage of Modified Residues ([3]; Tryptophan (W)): 0.25%; Number of Unique Modified Residues ([3]; Tyrosine (Y)): 17; Percentage of Modified Residues ([3]; Tyrosine (Y)): 21.4%
"C#CCn1cnc2nc(Cl)nc(Cl)c21 [Pu-1, 2,6-Dichloro-7-(prop-2-yn-1-yl)-7H-purine]",robust labeling profiles,react in a time dependent manner,highest protein labeling activity,time dependence in protein labeling,2,0.84%,0,0%,9,3.8%,196,82%,12,5.0%,3,1.3%,1,0.42%,4,1.7%,reactivity of N7 versus N9 tautomers ([1]; live DM93 cells): more reactive; concentration dependence of labeling ([1]; live cells): concentration dependent labeling; reactivity of N7 versus N9 tautomers ([2]; lysates): more reactive; concentration dependence of labeling ([2]; proteomes): concentration dependent labeling of proteomes; Number of Unique Modified Residues ([3]; Methionine (M)): 2; Percentage of Modified Residues ([3]; Methionine (M)): 0.84%; Number of Unique Modified Residues ([3]; Serine (S)): 1; Percentage of Modified Residues ([3]; Serine (S)): 0.42%; Number of Unique Modified Residues ([3]; Threonine (T)): 2; Percentage of Modified Residues ([3]; Threonine (T)): 0.84%; Number of Unique Modified Residues ([3]; Tryptophan (W)): 1; Percentage of Modified Residues ([3]; Tryptophan (W)): 0.42%; Number of Unique Modified Residues ([3]; Tyrosine (Y)): 6; Percentage of Modified Residues ([3]; Tyrosine (Y)): 2.5%
